In patent publication US4004976A, “Process for recovering the main sapogenins from the roots of rhizomes of helleborus” (Deutsche Gold- und Silber-Scheideanstalt vormals Roessler, priority 1974, dated 1977):

How the values were obtained:
[1] = system: central nervous system; assay: Muscle relaxing and central nervous system influencing activity; conditions: in words, no test described
[2] = system: indometacin ulcer of rats; assay: Indometacin ulcer of rats (method of John and Adrian modified by Wilhelmi), ulcer protecting effect; type: in vivo, rat (albino rats of the strain SIV 50); conditions: for Ulcer Protecting Effect: oral, 1 h after indometacin 20 mg/kg, evaluated 24 h after indometacin
Procedure: These tests were carried out according to the method of John and Adrian modified by Wilhelmi on the indometacin ulcer of rats (see Arneimittelforschung Vol. 19 (1969) pages 45 et seq.)
The determination is carried out in the following manner.
Albino rats of the strain SIV 50 (S. Ivanovas, Kisslegg/Allgau) having an initial weight of 250 to 300 grams were held in controlled temperature rooms at 20° to 22° C. in wire cages (Ebeco, Type 3 double width) on a standard diet (Altromin). After 48-hour feeding intervals the animals received 20 mg/kg rat of indometacin in 1.5% tragacanth (1 ml tragacanth solution per 100 grams of rat) applied intragastrally.
One hour after giving the indometacin there was dispensed orally to the animals the test substance. The rats remain otherwise fasting (water ad libitum).
Twenty-four hours after giving the indometacin the animals were killed with CO2. The stomach was resected, opened along the great curvature and washed under flowing water.
The ulcerative changes appear as dark, point or stria shaped spots on the mucosa. The evaluation was done according to the method of Munchow, Arneimittelforschung Vol. 4 (1954) pages 341-344.

[3] = Acute toxicity, LD 50 (method of Miller and Tainter); conditions: in vivo; mouse, oral application
Procedure: The acute toxicity of the compound of the invention in the mouse (expressed by LD 50 mg/kg; method of Miller and Tainter; Proc. Soc. Exper. Biol. a. Med. Vol. 57 (1944) pages 261 et seq.) on oral application, for example, is above 6000 mg/kg.

For `C=C1CC[C@@]2(OC1)O[C@H]1C[C@H]3[C@@H]4CC=C5C[C@@H](O)C[C@@H](O)[C@]5(C)[C@H]4[C@H](O)C[C@]3(C)[C@H]1[C@@H]2C` [compound of the invention, spiro-5,25(27)-diene-1β,3β,11α-triol], the “muscle relaxing and central nervous system influencing activity” value [1] was “muscle relaxing and central nervous system influencing activity has been established”, the “Ulcer Protecting Effect” value ([2]; Daily Dosage 50 mg/kg, rat) was 58% and the “Ulcer Protecting Effect” value ([2]; Daily Dosage 100 mg/kg, rat) was 78%. The “Ulcer Protecting Effect” value ([2]; Daily Dosage 200 mg/kg, rat) was 80%, the ulcer healing activity ([2]; in words) was “has an ulcer healing activity” and the antiulcer activity ([2]; indometacin ulcers of rats, in words) was “good antiulcer activity”. The minimal effective dose ([2]; po, 24 h, orally, indometacin ulcer, rat, read-out: lowest effective dosage) was 50 mg/kg, the “antiulcer activity compared with Biogastrone” value ([2]; versus known medicine Biogastrone, in words) was “comparable to the activity of the known medicine Biogastrone” and the LD50 [3] was greater than 6000 mg/kg.
